Where “and” joins values, the source holds several entries; their conditions need not be identical. Equal entries are not always repeated.
Test: Adverse events during switch from oral to i.v. selexipag and back in subjects with stable PAH (Phase 3 study)
Assay type: in vivo, human
Description: This was a prospective, multicenter, open-label, single-sequence, cross-over, Phase 3 study. Based on the dose of selexipag received at study entry, subjects were allocated to one of the following groups, selexipag 200-1000 μg b.i.d. or selexipag 1200-1600 μg b.i.d. See, FIG. 1. The study comprised the following periods:
(ii) Treatment and observation period: The treatment and observation period included the following consecutive periods: • Period 1 included oral selexipag pre-treatment period for 1 day, in-hospital. This period started with intake of the morning dose of oral selexipag on Day 1 at Visit 2 and ended the following day, before initiation of the first infusion of i.v. selexipag. • Period 2 included i.v. selexipag treatment period for 36 hours [3 infusions], in-hospital. This period started in the morning of Day 2 at Visit 2 with the start of the first infusion of i.v. selexipag and ended in the evening of Day 3 at Visit 2 before the evening administration of oral selexipag. Administration of oral selexipag was interrupted during the i.v. selexipag treatment period. • Period 3 included oral selexipag post-treatment period for 7 to 11 day. This period started in the evening of Day 3 at Visit 2 with the administration of oral selexipag and ended 7-11 days later, at Visit 3.
The endpoints analyzed for Period 1, Period 2, and Period 3 and follow-up period combined included discontinuations due to prostacyclin-associated AEs, adverse events (AEs) and serious adverse events (SAEs), prostacyclin-associated AEs, AEs related to injection site reactions, and PAH-related AEs.
The endpoints analyzed for (i) Period 1, Period 2, and Period 3 and follow-up period combined (ii) Period 1 and Period 2 combined, and (iii) Period 2 and Period 3 combined included discontinuations due to prostacyclin-associated AEs, discontinuations due to any AEs, AEs and SAEs, prostacyclin-associated AEs, PAH-related AEs, change from baseline in vital signs (systolic blood pressure [SBP], diastolic blood pressure [DBP], and pulse rate) and body weight, ECG abnormalities, marked laboratory abnormalities, and change from baseline in WHO FC.
The statistical analysis was mainly descriptive, without formal hypothesis testing. Exact Pearson-Clopper CIs for the incidence of AEs were computed.

[1] = Overall (Periods 1, 2, and 3, and safety-follow-up combined), 20 subjects
[2] = Overall (Periods 1, 2, and 3 with safety-follow-up combined)
[3] = Period 1 (oral selexipag), total, N = 20
[4] = Period 1 (oral selexipag, 24 h), high dose cohort (1200-1600 μg), N = 12
[5] = Period 1 (oral selexipag, 24 h), high dose cohort (1200-1600 μg), N = 12, listed as Uptravi
[6] = Period 1 (oral selexipag, 24 h), low dose cohort (200-1000 μg), N = 8
[7] = Period 1 (oral selexipag, 24 h), total, N = 20
[8] = Period 2 (i.v. selexipag, 36 h), high dose cohort (1200-1600 μg), N = 12
[9] = Period 2 (i.v. selexipag, 36 h), low dose cohort (200-1000 μg), N = 8
[10] = Period 2 (i.v. selexipag, 36 h), total, N = 20
[11] = Period 2 (intravenous selexipag treatment), high dose cohort (1200-1600 μg), N = 12

SMILES: CC(C)N(CCCCOCC(=O)NS(C)(=O)=O)c1cnc(-c2ccccc2)c(-c2ccccc2)n1 [selexipag, 2-{4-[(5,6-diphenylpyrazin-2-yl)(propan-2-yl)amino]butoxy}-N-(methanesulfonyl)acetamide]
- most frequently reported AE preferred term: headache [1]: 4 subjects
- subjects with at least 1 AE during the study [1]: 15 subjects
- subjects with mild intensity AEs [2]: 8 subjects
- subjects with moderate intensity AEs [2]: 5 subjects
- subjects with severe intensity AEs [2]: 1 subject
- Subjects with at least one prostacyclin-associated AE (Period 1 (oral selexipag), high dose cohort (1200-1600 μg), N = 12): 0 n (%)
- Subjects with at least one prostacyclin-associated AE (Period 1 (oral selexipag), low dose cohort (200-1000 μg), N = 8): 0 n (%)
- Deaths [3]: 0 n (%)
- Discontinuations due to prostacyclin-associated AEs [3]: 0 n (%)
- Number of subjects with at least one Prostacyclin-associated AEs [3]: 0 n (%)
- Number of subjects with at least one Serious adverse events (SAEs) [3]: 0 n (%)
- SAE incidence: Blindness unilateral [3]: 0 n (%)
- SAE incidence: Rhegmatogenous retinal detachment [3]: 0 n (%)
- SAE incidence: Right ventricular failure [3]: 0 n (%)
- AE incidence: Sleep disorder [4]: 1 n (%)
- AE incidence: Swelling face [4]: 0 n (%)
- Subjects with at least one AE [4]: 1 n (%)
- AE incidence: Sleep disorder [5]: 1 (8.3) n (%)
- Subjects with at least one AE [5]: 1 (8.3) n (%)
- AE incidence: Sleep disorder [6]: 0 n (%)
- AE incidence: Swelling face [6]: 1 (12.5) n (%)
- Subjects with at least one AE [6]: 1 (12.5) n (%)
- AE incidence: Sleep disorder [7]: 1 n (%)
- AE incidence: Swelling face [7]: 1 n (%)
- Subjects with at least one AE [7]: 2 n (%) and 2 (10.0) n (%)
- Subjects with at least one AE (Period 1 (oral selexipag, 24 h), total, N = 20, listed as Uptravi): 2 n (%)
- prematurely discontinued study treatment (Period 2 (3 i.v. infusions of selexipag)): No subject
- subjects with clinically significant injection site reactions as determined by the investigator (Period 2 (i.v. selexipag)): two
- AE incidence: Diarrhoea [8]: 1 n (%)
- AE incidence: Dysgeusia [8]: 0 n (%)
- AE incidence: Epistaxis [8]: 0 n (%)
- AE incidence: Flatulence [8]: 1 n (%)
- AE incidence: Flushing [8]: 1 n (%)
- AE incidence: Headache [8]: 3 n (%)
- AE incidence: Incorrect drug administration rate [8]: 0 n (%)
- AE incidence: Infusion site erythema [8]: 2 n (%)
- AE incidence: Infusion site swelling [8]: 1 n (%)
- AE incidence: Lymphadenopathy [8]: 0 n (%)
- AE incidence: Myalgia [8]: 1 n (%)
- AE incidence: Nasal congestion [8]: 1 n (%)
- AE incidence: Nausea [8]: 1 n (%)
- AE incidence: Pain in jaw [8]: 1 n (%)
- AE incidence: Tachycardia [8]: 0 n (%)
- AE incidence: Tension headache [8]: 1 n (%)
- AE incidence: Vascular access complication [8]: 1 n (%)
- AE incidence: Vomiting [8]: 1 n (%)
- Subjects with at least one AE [8]: 6 n (%)
- AE incidence: Diarrhoea [9]: 0 n (%)
- AE incidence: Dysgeusia [9]: 1 (12.5) n (%)
- AE incidence: Epistaxis [9]: 1 (12.5) n (%)
- AE incidence: Flatulence [9]: 0 n (%)
- AE incidence: Flushing [9]: 0 n (%)
- AE incidence: Headache [9]: 1 (12.5) n (%)
- AE incidence: Incorrect drug administration rate [9]: 1 (12.5) n (%)
- AE incidence: Infusion site erythema [9]: 0 n (%)
- AE incidence: Infusion site swelling [9]: 0 n (%)
- AE incidence: Lymphadenopathy [9]: 1 (12.5) n (%)
- AE incidence: Myalgia [9]: 0 n (%)
- AE incidence: Nasal congestion [9]: 0 n (%)
- AE incidence: Nausea [9]: 0 n (%)
- AE incidence: Pain in jaw [9]: 0 n (%)
- AE incidence: Tachycardia [9]: 1 (12.5) n (%)
- AE incidence: Tension headache [9]: 0 n (%)
- AE incidence: Vascular access complication [9]: 0 n (%)
- AE incidence: Vomiting [9]: 0 n (%)
- Subjects with at least one AE [9]: 4 (50.0) n (%)
- AE incidence: Diarrhoea [10]: 1 n (%)
- AE incidence: Dysgeusia [10]: 1 n (%)
- AE incidence: Epistaxis [10]: 1 n (%)
- AE incidence: Flatulence [10]: 1 n (%)
- AE incidence: Flushing [10]: 1 n (%)
- AE incidence: Headache [10]: 4 n (%)
- AE incidence: Incorrect drug administration rate [10]: 1 n (%)
- AE incidence: Infusion site erythema [10]: 2 n (%)
- AE incidence: Infusion site swelling [10]: 1 n (%)
- AE incidence: Lymphadenopathy [10]: 1 n (%)
- AE incidence: Myalgia [10]: 1 n (%)
- AE incidence: Nasal congestion [10]: 1 n (%)
- AE incidence: Nausea [10]: 1 n (%)
- AE incidence: Pain in jaw [10]: 1 n (%)
- AE incidence: Tachycardia [10]: 1 n (%)
- AE incidence: Tension headache [10]: 1 n (%)
- AE incidence: Vascular access complication [10]: 1 n (%)
- AE incidence: Vomiting [10]: 1 n (%)
- Subjects with at least one AE [10]: 10 n (%)
- Prostacyclin-associated AE incidence: Diarrhoea [11]: 1 n (%)
- Prostacyclin-associated AE incidence: Flushing [11]: 1 n (%)
- Prostacyclin-associated AE incidence: Headache [11]: 3 n (%)
- Prostacyclin-associated AE incidence: Myalgia [11]: 1 n (%)
- Prostacyclin-associated AE incidence: Nausea [11]: 1 n (%)
- Prostacyclin-associated AE incidence: Pain in jaw [11]: 1 n (%)
- Prostacyclin-associated AE incidence: Tension headache [11]: 1 n (%)
